Laboratory results published in the CheMixHub viscosity set.

Assay: xn = mol fraction of the nth substance listed

CN(C)C=O + CC(C)O
viscosity [mPa·s], 101 kPa
Settings | 298.15 K | 303.15 K | 308.15 K | 313.15 K | 318.15 K | 323.15 K
x1 = 0.0879 | 1.65 | 1.44 | 1.3 | 1.14 | – | –
x1 = 0.0995 | – | 1.385 | 1.237 | 1.096 | 0.9913 | 0.88
x1 = 0.1606 | 1.46 | 1.28 | 1.16 | 1.03 | – | –
x1 = 0.1992 | – | 1.166 | 1.057 | 0.9438 | 0.8597 | 0.778
x1 = 0.2389 | 1.34 | 1.18 | 1.08 | 0.95 | – | –
x1 = 0.3011 | – | 1.034 | 0.9443 | 0.8524 | 0.7903 | 0.7214
x1 = 0.3433 | 1.24 | 1.1 | 1.01 | 0.9 | – | –
x1 = 0.4009 | – | 0.9507 | 0.8752 | 0.8075 | 0.7462 | 0.6851
x1 = 0.44 | 1.16 | 1.05 | 0.96 | 0.87 | – | –
x1 = 0.4512 | 1.297 | – | – | – | – | –
x1 = 0.4737 | – | 0.9177 | 0.8467 | 0.7863 | 0.7252 | 0.6742
x1 = 0.5597 | 1.07 | 0.98 | 0.9 | 0.82 | – | –
x1 = 0.5987 | – | 0.8585 | 0.7964 | 0.7362 | 0.6938 | 0.6453
x1 = 0.6504 | 1.01 | 0.94 | 0.86 | 0.8 | – | –
x1 = 0.7011 | – | 0.8282 | 0.771 | 0.7187 | 0.6776 | 0.6312
x1 = 0.735 | 0.96 | 0.89 | 0.83 | 0.76 | – | –
x1 = 0.7991 | – | 0.796 | 0.7476 | 0.6985 | 0.6578 | 0.6196
x1 = 0.8522 | 0.89 | 0.83 | 0.78 | 0.72 | – | –
x1 = 0.8995 | – | 0.7844 | 0.7374 | 0.6874 | 0.6507 | 0.614
x1 = 0.9422 | 0.84 | 0.79 | 0.74 | 0.69 | – | –

ClC(Cl)=C(Cl)Cl + CC(C)O
Settings | viscosity [mPa·s]
298.15 K, 101.3 kPa, x1 = 0.0763 | 1.855
298.15 K, 101.3 kPa, x1 = 0.6349 | 1.025
303.15 K, 101.33 kPa, x1 = 0.1028 | 1.473
303.15 K, 101.33 kPa, x1 = 0.2072 | 1.251
303.15 K, 101.33 kPa, x1 = 0.307 | 1.102
303.15 K, 101.33 kPa, x1 = 0.3926 | 1.007
303.15 K, 101.33 kPa, x1 = 0.5027 | 0.92
303.15 K, 101.33 kPa, x1 = 0.6105 | 0.864
303.15 K, 101.33 kPa, x1 = 0.6982 | 0.838
303.15 K, 101.33 kPa, x1 = 0.7882 | 0.823
303.15 K, 101.33 kPa, x1 = 0.8976 | 0.814
